Experimental data published in patent US11911393B2, “Non-catalytic substrate-selective p38alpha-specific MAPK inhibitors with endothelial-stabilizing and anti-inflammatory activity, and methods of use thereof” (University of Maryland, Baltimore, priority 2016, dated 2024).

System: TNFα-induced gene expression in HMVECLs
Test: RNASeq of TNFα-induced gene expression
Type: cell-based, human
Conditions: 100 μM UM101, 10 μM SB203580

`C[S+]([O-])c1ccc(-c2nc(-c3ccncc3)c(-c3ccc(F)cc3)[nH]2)cc1` (stereo not shown) [SB203580, reference compound] was tested, and the “bin (gene expression response pattern)” value (AC003092.1 (ENSG00000236453)) was 7, the “bin (gene expression response pattern)” value (AC010642.2 (ENSG00000269794)) was 7 and the “bin (gene expression response pattern)” value (AC116366.6 (ENSG00000234290)) was 8. The “bin (gene expression response pattern)” value (ADAP1 (ENSG00000105963)) was 7, the “bin (gene expression response pattern)” value (ADM2 (ENSG00000128165)) was 7 and the “bin (gene expression response pattern)” value (ANKRD55 (ENSG00000164512)) was 8. For the same molecule, the “bin (gene expression response pattern)” value (APOBEC3G (ENSG00000239713)) was 7, the “bin (gene expression response pattern)” value (APOL2 (ENSG00000128335)) was 7 and the “bin (gene expression response pattern)” value (APOL6 (ENSG00000221963)) was 7. The “bin (gene expression response pattern)” value (BPGM (ENSG00000172331)) was 8, the “bin (gene expression response pattern)” value (C1QTNF1 (ENSG00000173918)) was 7 and the “bin (gene expression response pattern)” value (C6orf58 (ENSG00000184530)) was 7. For the same molecule, the “bin (gene expression response pattern)” value (C8orf4 (ENSG00000176907)) was 8, the “bin (gene expression response pattern)” value (C11orf88 (ENSG00000183644)) was 7 and the “bin (gene expression response pattern)” value (C15orf54 (ENSG00000175746)) was 8. The “bin (gene expression response pattern)” value (CCL1 (ENSG00000108702)) was 7, the “bin (gene expression response pattern)” value (CD40 (ENSG00000101017)) was 7 and the “bin (gene expression response pattern)” value (CD69 (ENSG00000110848)) was 8. For the same molecule, the “bin (gene expression response pattern)” value (CDON (ENSG00000064309)) was 7, the “bin (gene expression response pattern)” value (CLEC2D (ENSG00000069493)) was 7 and the “bin (gene expression response pattern)” value (CSF2 (ENSG00000164400)) was 8. The “bin (gene expression response pattern)” value (CTC-231O11.1 (ENSG00000253522)) was 7, the “bin (gene expression response pattern)” value (CTD-2369P2.8 (ENSG00000267607)) was 7 and the “bin (gene expression response pattern)” value (CX3CL1 (ENSG00000006210)) was 7. The “bin (gene expression response pattern)” value (DRD4 (ENSG00000069696)) was 7, the “bin (gene expression response pattern)” value (EBI3 (ENSG00000105246)) was 8 and the “bin (gene expression response pattern)” value (EGLN3 (ENSG00000129521)) was 7. The “bin (gene expression response pattern)” value (ENKUR (ENSG00000151023)) was 7, the “bin (gene expression response pattern)” value (ERVFRD-1 (ENSG00000244476)) was 8 and the “bin (gene expression response pattern)” value (ETV3L (ENSG00000253831)) was 7. The “bin (gene expression response pattern)” value (F2RL3 (ENSG00000127533)) was 8, the “bin (gene expression response pattern)” value (FAM101A (ENSG00000178882)) was 8 and the “bin (gene expression response pattern)” value (GCH1 (ENSG00000131979)) was 7. For the same molecule, the “bin (gene expression response pattern)” value (GPR37L1 (ENSG00000170075)) was 7, the “bin (gene expression response pattern)” value (GPR182 (ENSG00000166856)) was 7 and the “bin (gene expression response pattern)” value (HAND1 (ENSG00000113196)) was 8. The “bin (gene expression response pattern)” value (HAS2 (ENSG00000170961)) was 8, the “bin (gene expression response pattern)” value (HELZ2 (ENSG00000130589)) was 7 and the “bin (gene expression response pattern)” value (HEPACAM (ENSG00000165478)) was 8. For the same molecule, the “bin (gene expression response pattern): AC073850.6” value (HMVECLs, TNFα) was 5, the “bin (gene expression response pattern): AGPAT9” value (HMVECLs, TNFα) was 5 and the “bin (gene expression response pattern): ARHGAP18” value (HMVECLs, TNFα) was 5. For the same molecule, the “bin (gene expression response pattern): ARHGEF28” value (HMVECLs, TNFα) was 5, the “bin (gene expression response pattern): ARL11” value (HMVECLs, TNFα) was 5 and the “bin (gene expression response pattern): BAMBI” value (HMVECLs, TNFα) was 1. For the same molecule, the “bin (gene expression response pattern): BCL2L10” value (HMVECLs, TNFα) was 5, the “bin (gene expression response pattern): BMF” value (HMVECLs, TNFα) was 5 and the “bin (gene expression response pattern): C2CD4B” value (HMVECLs, TNFα) was 5. The “bin (gene expression response pattern): C19orf35” value (HMVECLs, TNFα) was 5, the “bin (gene expression response pattern): CCL17” value (HMVECLs, TNFα) was 3 and the “bin (gene expression response pattern): CD200” value (HMVECLs, TNFα) was 3. The “bin (gene expression response pattern): CD207” value (HMVECLs, TNFα) was 3, the “bin (gene expression response pattern): CELF2-AS1” value (HMVECLs, TNFα) was 5 and the “bin (gene expression response pattern): CH25H” value (HMVECLs, TNFα) was 5. For the same molecule, the “bin (gene expression response pattern): CTA-212A2.1” value (HMVECLs, TNFα) was 3, the “bin (gene expression response pattern): CTA-221G9.12” value (HMVECLs, TNFα) was 5 and the “bin (gene expression response pattern): CTB-152G17.6” value (HMVECLs, TNFα) was 5. For the same molecule, the “bin (gene expression response pattern): CXCL3” value (HMVECLs, TNFα) was 5, the “bin (gene expression response pattern): CXCL5” value (HMVECLs, TNFα) was 3 and the “bin (gene expression response pattern): CXCL10” value (HMVECLs, TNFα) was 3. The “bin (gene expression response pattern): CXCL11” value (HMVECLs, TNFα) was 3, the “bin (gene expression response pattern): DLL4” value (HMVECLs, TNFα) was 1 and the “bin (gene expression response pattern): ELOVL7” value (HMVECLs, TNFα) was 3. The “bin (gene expression response pattern): EPHX4” value (HMVECLs, TNFα) was 5, the “bin (gene expression response pattern): ETV1” value (HMVECLs, TNFα) was 1 and the “bin (gene expression response pattern): EXOC3L4” value (HMVECLs, TNFα) was 3. The “bin (gene expression response pattern): FAM84A” value (HMVECLs, TNFα) was 5, the “bin (gene expression response pattern): FBX032” value (HMVECLs, TNFα) was 5 and the “bin (gene expression response pattern): FHL2” value (HMVECLs, TNFα) was 5. For the same molecule, the “bin (gene expression response pattern): FLRT3” value (HMVECLs, TNFα) was 1, the “bin (gene expression response pattern): FP236383.10” value (HMVECLs, TNFα) was 4 and the “bin (gene expression response pattern): GBP1P1” value (HMVECLs, TNFα) was 3. For the same molecule, the “bin (gene expression response pattern): GBP4” value (HMVECLs, TNFα) was 3, the “bin (gene expression response pattern): GFOD1” value (HMVECLs, TNFα) was 5 and the “bin (gene expression response pattern): GPR68” value (HMVECLs, TNFα) was 2. For the same molecule, the “bin (gene expression response pattern): GPR88” value (HMVECLs, TNFα) was 3, the “bin (gene expression response pattern): GRPEL2” value (HMVECLs, TNFα) was 5 and the “bin (gene expression response pattern): HAS3” value (HMVECLs, TNFα) was 3. The “bin (gene expression response pattern): HEY1” value (HMVECLs, TNFα) was 5, the “bin (gene expression response pattern): HMSD” value (HMVECLs, TNFα) was 5 and the “bin (gene expression response pattern): HRCT1” value (HMVECLs, TNFα) was 5. The “bin (gene expression response pattern): HTR1D” value (HMVECLs, TNFα) was 5, the “bin (gene expression response pattern): IBA57-AS1” value (HMVECLs, TNFα) was 5 and the “bin (gene expression response pattern): ID1” value (HMVECLs, TNFα) was 5. For the same molecule, the “bin (gene expression response pattern): IDO1” value (HMVECLs, TNFα) was 3, the “bin (gene expression response pattern): IL1B” value (HMVECLs, TNFα) was 3 and the “bin (gene expression response pattern): INPP4B” value (HMVECLs, TNFα) was 5. For the same molecule, the “bin (gene expression response pattern): JUNB” value (HMVECLs, TNFα) was 5, the “bin (gene expression response pattern): KCNJ12” value (HMVECLs, TNFα) was 1 and the “bin (gene expression response pattern): KDM7A” value (HMVECLs, TNFα) was 5. The “bin (gene expression response pattern): KIAA1211L” value (HMVECLs, TNFα) was 1, the “bin (gene expression response pattern): KIT” value (HMVECLs, TNFα) was 5 and the “bin (gene expression response pattern): KLF15” value (HMVECLs, TNFα) was 5. The “bin (gene expression response pattern): KSR2” value (HMVECLs, TNFα) was 5, the “bin (gene expression response pattern): LINC00677” value (HMVECLs, TNFα) was 3 and the “bin (gene expression response pattern): LMCD1” value (HMVECLs, TNFα) was 5. The “bin (gene expression response pattern): LONRF3” value (HMVECLs, TNFα) was 5, the “bin (gene expression response pattern): LRFN1” value (HMVECLs, TNFα) was 5 and the “bin (gene expression response pattern): LRFN5” value (HMVECLs, TNFα) was 2. For the same molecule, the “bin (gene expression response pattern): LYL1” value (HMVECLs, TNFα) was 5.
